Measurements published in ChEMBL document CHEMBL3120134, “A review of non-nucleoside anti-hepatitis B virus agents” (Eur J Med Chem, 2014).
Values after ≈ are worked out from the molar mass of the structure shown. One block for each compound: values may come before it.

Columns and labels:
Hepatitis B virus [1] = assay: Antiviral activity against Hepatitis B virus infected in human HepG2.2.15 cells assessed as decrease in HBV e antigen secretion at 200 ug/ml after 9 days by ELISA; type: functional; conditions: HepG2 2.2.15, 216 h
Duck hepatitis B virus [2] = assay: Antiviral activity against Duck Hepatitis B virus infected in duckling assessed as decrease in DHBV level in serum at 120 mg/kg dosed through liquid diet for 10 days administered started on day 7 post-infection; type: functional
Hepatitis B virus [3] = assay: Antiviral activity against Hepatitis B virus infected in human HepG2.2.15 cells assessed as decrease in HBV surface antigen secretion at 200 ug/ml after 9 days by ELISA; type: functional; conditions: HepG2 2.2.15, 216 h
Hepatitis B virus [4] = assay: Antiviral activity against Hepatitis B virus infected in human HepG2.2.15 cells assessed as decrease in HBV surface antigen secretion; type: functional, organism-based, HepG2 2.2.15; conditions: Hepatitis B virus, HepG2 2.2.15
Hepatitis B virus [5] = assay: Antiviral activity against Hepatitis B virus; type: functional, organism-based
Hepatitis B virus [6] = assay: Antiviral activity against Hepatitis B virus assessed as inhibition of Hepatitis B virus DNA replication; type: functional, organism-based
[7] = Selectivity index, ratio of cytotoxicity towards human HepG2.2.15 cells to IC50 for HBV surface antigen secretion; type: toxicity, cell-based; conditions: read-out: Selectivity Index
[8] = Selectivity index, ratio of cytotoxicity towards human HepG2.2.15 cells to IC50 for HBV DNA production; type: toxicity, cell-based; conditions: read-out: Selectivity Index
[9] = Selectivity index, ratio of cytotoxicity towards human HepG2.2.15 cells to IC50 for HBV e antigen secretion; type: toxicity, cell-based; conditions: read-out: Selectivity Index
Hepatitis B virus [10] = assay: Antiviral activity against Hepatitis B virus infected in human HepG2.2.15 cells assessed as decrease in HBV DNA production; type: functional, organism-based; conditions: HepG2 2.2.15
Hepatitis B virus [11] = assay: Antiviral activity against Hepatitis B virus infected in human HepG2.2.15 cells assessed as decrease in HBV e antigen secretion; type: functional, organism-based, HepG2 2.2.15; conditions: Hepatitis B virus, HepG2 2.2.15
Duck hepatitis B virus [12] = assay: Antiviral activity against Duck Hepatitis B virus infected in duckling assessed as decrease in DHBV DNA replication at 0.2 g/kg dosed for 10 days; type: functional; conditions: 240 h
Hepatitis B virus [13] = assay: Antiviral activity against Hepatitis B virus assessed as inhibition of Hepatitis B virus surface antigen secretion; type: functional, organism-based
Hepatitis B virus [14] = assay: Antiviral activity against Hepatitis B virus assessed as inhibition of Hepatitis B virus e antigen secretion; type: functional, organism-based
Hepatitis B virus [15] = assay: Antiviral activity against Hepatitis B virus infected in human HepG2.2.15 cells assessed as decrease in HBV surface antigen secretion after 21 days; type: functional, organism-based; conditions: HepG2 2.2.15, 504 h
Hepatitis B virus [16] = assay: Antiviral activity against Hepatitis B virus infected in human MS-G2 cells assessed as decrease in HBV surface antigen production at 20 ug/ml; type: functional
Hepatitis B virus [17] = assay: Antiviral activity against Hepatitis B virus infected in human HepG2.2.15 cells assessed as decrease in HBV e antigen secretion after 9 days; type: functional, organism-based; conditions: HepG2 2.2.15, 216 h

SMILES: CC(C)(O)[C@@H]1CC[C@](C)([C@H]2[C@@H](O)C[C@@]3(C)[C@@H]4C[C@H](O[C@@H]5O[C@H](CO)[C@@H](O)[C@H](O)[C@H]5O)[C@H]5C(C)(C)[C@@H](O[C@@H]6OC[C@@H](O)[C@H](O)[C@H]6O)CC[C@@]56C[C@@]46CC[C@]23C)O1
- inhibition at 200 µg/mL (Hepatitis B virus [1]): 23.3%
- inhibition in vivo at 120 mg/kg (Duck hepatitis B virus [2]): 64%
- inhibition at 200 µg/mL (Hepatitis B virus [3]): 31.8%

SMILES: Cc1ccc(O)c(C(=O)Nc2ncc(Cl)s2)c1
- EC50 (Hepatitis B virus [5]): 120 nM

SMILES: CC(=O)Oc1ccccc1C(=O)Nc1ncc([N+](=O)[O-])s1 [NITAZOXANIDE]
- EC50 (Hepatitis B virus [5]): 120 nM

SMILES: COC(=O)C1=C(C)NC(c2ncc(F)cc2F)=N[C@H]1c1ccc(F)cc1Cl
- IC50 (Hepatitis B virus [6]): 50 nM

SMILES: CC(=O)OC[C@H]1O[C@@H](Sc2nnc(-c3ccc(Cl)cc3)n2N)[C@H](OC(C)=O)[C@@H](OC(C)=O)[C@@H]1OC(C)=O
- IC50 (Hepatitis B virus [5]): 63000 nM

SMILES: Cc1cc(O)c2c(c1)C(=O)c1cccc(O[C@@H]3O[C@H](CO)[C@@H](O)[C@H](O)[C@H]3O)c1C2=O [PULMATIN]
- selectivity ratio [7]: > 42
- selectivity ratio [8]: > 42
- selectivity ratio [9]: > 42

SMILES: C[C@@H]1CC[C@]2(C(=O)O[C@@H]3O[C@H](CO)[C@@H](O)[C@H](O)[C@H]3O)CC[C@]3(C)C(=CC[C@@H]4[C@@]5(C)C[C@@H](O)[C@H](O)C(C)(C)[C@@H]5CC[C@]43C)[C@@H]2[C@]1(C)O
- selectivity ratio [7]: 4.1
- IC50 (Hepatitis B virus [4]): 57.7 µg/mL
- IC50 (Hepatitis B virus [10]): 19.4 µg/mL
- selectivity ratio [8]: 12.1
- IC50 (Hepatitis B virus [11]): 30 µg/mL (≈ 46.2 µM)
- selectivity ratio [9]: 7.86
- inhibition in vivo at 200 mg/kg (Duck hepatitis B virus [12]): 58.5%

SMILES: Cc1ccc(-c2nnc3sc(CN)cn23)cc1
- IC50 (Hepatitis B virus [5]): 35000 nM

SMILES: COc1ccc2c(c1OC)CN(C)c1c-2ccc2cc3c(cc12)OCO3 [DIHYDROCHELERYTHRINE]
- IC50 (Hepatitis B virus [13]): < 50 nM
- IC50 (Hepatitis B virus [14]): < 50 nM

SMILES: CCOC(=O)c1c(C[S+]([O-])c2cccc(F)c2)n(C)c2cc(Br)c(O)c(CN3CCOCC3)c12 (stereo not drawn)
- IC50 (Hepatitis B virus [5]): < 60 µg/mL

SMILES: Cc1oc2nc1C(=O)N[C@@H](C)c1nc(co1)C(=O)N[C@@H](CC(C)C)C(=O)N1CCC[C@H]1C(=O)N[C@@H](C(C)C)c1nc-2cs1 [LEUCAMIDE A]
- IC50 (Hepatitis B virus [6]): 76400 nM

SMILES: CCOC(=O)c1c(CS(=O)(=O)c2ccc(C)cc2)n(C2CC2)c2ccc(O)c(Cn3ccnc3)c12
- IC50 (Hepatitis B virus [5]): < 60 µg/mL

SMILES: COc1c(O)cc(O)c2c(=O)cc(-c3ccccc3)oc12 [WOGONIN]
- inhibition at 20 µg/mL (Hepatitis B virus [16]): 45.4%
- IC50 (Hepatitis B virus [17]): 4 µg/mL (≈ 14.1 µM)

More lines, main results first:

- IC50 (Hepatitis B virus [4]): 600 nM
SMILES: C[C@H](C[C@H](O)[C@@H](O)C(C)(C)O)[C@]12CC[C@@]3(C)[C@@]1(C[C@H](O)[C@H]1[C@@]4(C)CCC(=O)C(C)(C)[C@@H]4CC[C@@]13C)O2

- EC50 (Hepatitis B virus [5]): 80 nM
SMILES: O=C1NCc2c1cc1ccc3c(c1c2-c1ccc2c(c1)OCO2)OCO3

- EC50 (Hepatitis B virus [5]): 120 nM
SMILES: O=C(Nc1ncc(Br)s1)c1ccccc1O

- IC50 (Hepatitis B virus [5]): < 60 µg/mL
SMILES: CCOC(=O)c1c(C[S+]([O-])c2ccc(F)c(F)c2)n(C)c2cc(Br)c(O)c(Cn3ccnc3C)c12 (stereo not drawn)

- IC50 (Hepatitis B virus [10]): < 10000 nM
SMILES: COc1cc2cc3c(nc2c(CN2CCCCC2)c1O)-c1ccc(F)cc1SC3

- EC50 (Hepatitis B virus [5]): 120 nM
SMILES: Cc1ccc(C(=O)Nc2ncc(Cl)s2)c(O)c1

- IC50 (Hepatitis B virus [10]): < 10000 nM
SMILES: COc1cc2nc3c(cc2c(CN2CCCCC2)c1O)CSc1c(C)cc(C)cc1-3

- IC50 (Hepatitis B virus [4]): 600 nM
SMILES: C[C@@H]1C[C@@H]([C@@H](O)C(C)(C)O)O[C@H]2C[C@@]3(C)C(=C12)C[C@H](O)[C@H]1[C@@]2(C)CCC(=O)C(C)(C)[C@@H]2CC[C@@]13C

- EC50 (Hepatitis B virus [5]): 1000 nM
SMILES: O=C1OCc2c1cc1ccc3c(c1c2-c1ccc2c(c1)OCO2)OCO3 [HELIOXANTHIN]

- IC50 (Hepatitis B virus [10]): 3500 nM
SMILES: CCOC(=O)c1cc2cc(OC)c(O)c(Cn3ccnc3)c2nc1C[S+]([O-])c1ccc(F)cc1 (stereo not drawn)
- selectivity ratio [8]: 37.9

- IC50 (Hepatitis B virus [10]): < 10000 nM
SMILES: CCN(CC)Cc1c(O)c(OC)cc2nc3c(cc12)CSc1cc(F)ccc1-3

- IC50 (Hepatitis B virus [15]): 2300 nM
SMILES: C[C@H]1[C@H](OC(=O)CCC(=O)O)O[C@@H]2O[C@@]3(C)CC[C@H]4[C@H](C)CC[C@@H]1[C@@]24OO3 [ARTESUNATE]

- IC50 (Hepatitis B virus [10]): 2600 nM
SMILES: CCOC(=O)c1cc2cc(OC)c(O)c(Cn3ccnc3)c2nc1C[S+]([O-])c1ccc(F)c(F)c1 (stereo not drawn)
- selectivity ratio [8]: 61.7

- IC50 (Hepatitis B virus [10]): 343000 nM
- IC50 (Hepatitis B virus [6]): 260 nM
SMILES: Nc1ccn([C@@H]2CS[C@H](CO)O2)c(=O)n1 [LAMIVUDINE]
- selectivity ratio [8]: 7
